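Each compound was tested at five concentrations against cells in 96-well plates for 48 hours. At the GI50, growth is halved.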 Activity calls are given as the source filed them. Cut-off read from the data, not from the text of the source: active = GI50 up to about 1.1 µM and inactive = higher. Where a SMILES comes first, the peptide text is derived from it. The star is where a group is joined. Cbz = O=C(OCc1ccccc1)*; Bn = c1ccc(C*)cc1
Experiments:
Assay in all cases: NCI anticancer screen, dose series, 48 h
COLO 205 = test system: COLO 205
SNB-75 = test system: SNB-75
OVCAR-5 = test system: OVCAR-5
HT-29 = test system: HT-29
SK-OV-3 = test system: SK-OV-3
OVCAR-8 = test system: OVCAR-8
MOLT-4 = test system: MOLT-4
UACC-257 = test system: UACC-257
HCT-15 = test system: HCT-15
786-0 = test system: 786-0
SF-268 = test system: SF-268
CCRF-CEM = test system: CCRF-CEM
SW-620 = test system: SW-620
UO-31 = test system: UO-31
IGROV-1 = test system: IGROV-1
NCI-H460 = test system: NCI-H460
LOX IMVI = test system: LOX IMVI
KM12 = test system: KM12
SNB-19 = test system: SNB-19
OVCAR-3 = test system: OVCAR-3

| SMILES | GI50 (COLO 205) | GI50 (SNB-75) | GI50 (OVCAR-5) | GI50 (HT-29) | GI50 (SK-OV-3) | GI50 (OVCAR-8) | GI50 (MOLT-4) | GI50 (UACC-257) | GI50 (HCT-15) [µM] | GI50 (786-0) | GI50 (SF-268) | GI50 (CCRF-CEM) | GI50 (SW-620) | GI50 (UO-31) | GI50 (IGROV-1) | GI50 (NCI-H460) | GI50 (LOX IMVI) | GI50 (KM12) | GI50 (SNB-19) | GI50 (OVCAR-3) |
| --- | --- | --- | --- | --- | --- | --- | --- | --- | --- | --- | --- | --- | --- | --- | --- | --- | --- | --- | --- | --- |
| O=C(/C(=C/c1ccc(O)cc1)c1ccccc1)c1ccccc1 | 17.5 µM (inactive) | 16.7 µM (inactive) | 17 µM (inactive) | 18.1 µM (inactive) | 20.8 µM (inactive) | 27 µM (inactive) | 15.4 µM (inactive) | 18 µM (inactive) | 18 | 18.5 µM (inactive) | 17.3 µM (inactive) | 20 µM (inactive) | 18 µM (inactive) | 15.4 µM (inactive) | 18.7 µM (inactive) | 18.7 µM (inactive) | 13.2 µM (inactive) | 15.7 µM (inactive) | – | – |
| C=CCCCCn1c2ccccc2c2c(C)c3cnccc3c(C)c21 | 3.96 µM (inactive) | 3.88 µM (inactive) | 16.9 µM (inactive) | 7 µM (inactive) | 16.5 µM (inactive) | 3.93 µM (inactive) | 2.83 µM (inactive) | 4.5 µM (inactive) | 6.27 | – | 11.3 µM (inactive) | 4.04 µM (inactive) | 4.54 µM (inactive) | 5.75 µM (inactive) | 11.7 µM (inactive) | 6.64 µM (inactive) | 7.55 µM (inactive) | 8.47 µM (inactive) | 15.3 µM (inactive) | 4.99 µM (inactive) |
| CCOC(=O)C(=O)Nc1ccccc1CC | – | – | > 100 µM (inactive) | > 100 µM (inactive) | > 100 µM (inactive) | > 100 µM (inactive) | > 100 µM (inactive) | > 100 µM (inactive) | – | > 100 µM (inactive) | > 100 µM (inactive) | > 100 µM (inactive) | > 100 µM (inactive) | > 100 µM (inactive) | > 100 µM (inactive) | > 100 µM (inactive) | > 100 µM (inactive) | > 100 µM (inactive) | > 100 µM (inactive) | > 100 µM (inactive) |
| Nc1c(/N=N/c2ccc(-c3ccc(/N=N/c4c(O)ccc5cc(S(=O)(=O)O)cc(S(=O)(=O)O)c45)cc3)cc2)c(S(=O)(=O)O)cc2cc(S(=O)(=O)O)c(/N=N/c3ccccc3)c(O)c12 | > 100 µM (inactive) | 35.7 µM (inactive) | > 100 µM (inactive) | > 100 µM (inactive) | > 100 µM (inactive) | > 100 µM (inactive) | > 100 µM (inactive) | > 100 µM (inactive) | > 100 | – | > 100 µM (inactive) | > 100 µM (inactive) | > 100 µM (inactive) | 6.84 µM (inactive) | > 100 µM (inactive) | > 100 µM (inactive) | > 69 µM (inactive) | > 100 µM (inactive) | > 100 µM (inactive) | > 100 µM (inactive) |
| COc1ccc2c(c1)CCC(CN1CCN(CCOC(c3ccccc3)c3ccccc3)CC1)C2O (centres undefined) | 12.6 µM (inactive) | 17.9 µM (inactive) | 16.6 µM (inactive) | 5.04 µM (inactive) | 17.9 µM (inactive) | 14.5 µM (inactive) | 11.8 µM (inactive) | 13 µM (inactive) | 10.8 | 16.6 µM (inactive) | 16.6 µM (inactive) | 16.3 µM (inactive) | 20 µM (inactive) | 15.4 µM (inactive) | 15.4 µM (inactive) | 16.7 µM (inactive) | 17.3 µM (inactive) | 18.3 µM (inactive) | 18.3 µM (inactive) | 15.3 µM (inactive) |
| Nc1c2c(=O)[nH]c(=O)c2c(N)c2c(=O)c3ccccc3c(=O)c12 | 0.687 µM (active) | – | 1.82 µM (inactive) | 0.977 µM (active) | 7.23 µM (inactive) | 1.82 µM (inactive) | 3.68 µM (inactive) | 1.69 µM (inactive) | 1.36 | 2.69 µM (inactive) | 2.65 µM (inactive) | 2.93 µM (inactive) | 1.69 µM (inactive) | 3.81 µM (inactive) | 1.65 µM (inactive) | 0.869 µM (active) | 1.23 µM (inactive) | 1.83 µM (inactive) | 3.29 µM (inactive) | 0.684 µM (active) |
| CC1(c2nc3ccccc3[nH]2)CCC(CO)C(C)(C)O1 (centres undefined) | > 100 µM (inactive) | > 100 µM (inactive) | > 100 µM (inactive) | > 100 µM (inactive) | > 100 µM (inactive) | > 100 µM (inactive) | > 100 µM (inactive) | > 100 µM (inactive) | > 100 | > 100 µM (inactive) | > 100 µM (inactive) | > 100 µM (inactive) | > 100 µM (inactive) | 98.6 µM (inactive) | > 100 µM (inactive) | – | > 100 µM (inactive) | > 100 µM (inactive) | > 100 µM (inactive) | > 100 µM (inactive) |
| CC1(C)C[C@H]2C=C(C=O)[C@]34C[C@]3(C(=O)OC4O)[C@H]2C1 (some centres undefined) | 0.374 µM (active) | 1.91 µM (inactive) | 2.37 µM (inactive) | 1.87 µM (inactive) | 16 µM (inactive) | 1.1 µM (active) | 1.53 µM (inactive) | 2.11 µM (inactive) | 1.43 | – | 1.61 µM (inactive) | 0.813 µM (active) | 3.92 µM (inactive) | 1.83 µM (inactive) | 3.05 µM (inactive) | 18.1 µM (inactive) | 1.24 µM (inactive) | 1.94 µM (inactive) | 11.4 µM (inactive) | 2.84 µM (inactive) |
| CCCCCCCCCC/C=C/C=O | > 100 µM (inactive) | > 100 µM (inactive) | > 100 µM (inactive) | > 100 µM (inactive) | > 100 µM (inactive) | > 100 µM (inactive) | 70.3 µM (inactive) | > 100 µM (inactive) | > 100 | – | > 100 µM (inactive) | > 100 µM (inactive) | > 100 µM (inactive) | > 100 µM (inactive) | > 100 µM (inactive) | > 100 µM (inactive) | > 100 µM (inactive) | > 100 µM (inactive) | > 100 µM (inactive) | > 100 µM (inactive) |
| C=CC[N+](CCO)(CCO)CCCCCCCCCCCCCCCCCC | 3.36 µM (inactive) | 2.43 µM (inactive) | 14 µM (inactive) | 3.08 µM (inactive) | 10.9 µM (inactive) | 9.25 µM (inactive) | 1.61 µM (inactive) | 6.38 µM (inactive) | 12.8 | – | 3.33 µM (inactive) | 1.23 µM (inactive) | 6.24 µM (inactive) | 9.62 µM (inactive) | 1.97 µM (inactive) | 4.05 µM (inactive) | 2.75 µM (inactive) | 1.99 µM (inactive) | 8.91 µM (inactive) | 5.11 µM (inactive) |
| CC1=C(C(=O)Nc2ccccc2)C(c2ccc3c(c2)OCO3)C(C(=O)Nc2ccccc2)=C(C)N1 | 42.7 µM (inactive) | – | > 10 µM (inactive) | 37.2 µM (inactive) | 47.3 µM (inactive) | 37.9 µM (inactive) | 19 µM (inactive) | 40.9 µM (inactive) | 33 | 36.3 µM (inactive) | 25.3 µM (inactive) | 15.2 µM (inactive) | 3.5 µM (inactive) | 29.5 µM (inactive) | 60.7 µM (inactive) | 43.9 µM (inactive) | 24.4 µM (inactive) | 28.5 µM (inactive) | 25.7 µM (inactive) | 22.7 µM (inactive) |
| COc1ccc(Nc2nc3ccccc3nc2-c2cccs2)cc1 | > 100 µM (inactive) | 28.6 µM (inactive) | > 100 µM (inactive) | – | 40.5 µM (inactive) | > 100 µM (inactive) | > 100 µM (inactive) | > 100 µM (inactive) | > 100 | 75 µM (inactive) | > 100 µM (inactive) | > 100 µM (inactive) | > 100 µM (inactive) | > 100 µM (inactive) | > 100 µM (inactive) | 79.4 µM (inactive) | > 100 µM (inactive) | > 100 µM (inactive) | > 100 µM (inactive) | > 100 µM (inactive) |
| CC(C)CCNC(=O)c1ccc(CNC(=O)/C=C/c2ccc(OCc3ccccc3)cc2)cc1 | > 100 µM (inactive) | > 100 µM (inactive) | > 100 µM (inactive) | > 100 µM (inactive) | > 100 µM (inactive) | > 100 µM (inactive) | > 100 µM (inactive) | > 100 µM (inactive) | > 100 | > 100 µM (inactive) | > 100 µM (inactive) | > 100 µM (inactive) | > 100 µM (inactive) | > 100 µM (inactive) | – | > 100 µM (inactive) | > 100 µM (inactive) | > 100 µM (inactive) | > 100 µM (inactive) | > 100 µM (inactive) |
| CC1=C2[C@@H](c3ccccc3)C3C=CC2(C=C3C(F)(F)F)N(C(=O)NC2CCCCC2)C1=O (some centres undefined) | > 100 µM (inactive) | > 100 µM (inactive) | > 100 µM (inactive) | 72.9 µM (inactive) | > 100 µM (inactive) | > 100 µM (inactive) | 16.2 µM (inactive) | 36.2 µM (inactive) | 81.3 | 78 µM (inactive) | 91 µM (inactive) | 25.1 µM (inactive) | > 100 µM (inactive) | 51.5 µM (inactive) | > 100 µM (inactive) | > 100 µM (inactive) | 44 µM (inactive) | 72.6 µM (inactive) | > 100 µM (inactive) | > 100 µM (inactive) |
| COC(=O)C(Cc1ccc(O)cc1)NC(=O)C(COCc1ccccc1)NC(=O)OCc1ccccc1 (centres undefined) (Cbz-Ser(Bn)-Tyr-OMe; configuration not given here) | 17.1 µM (inactive) | 14.9 µM (inactive) | 19.8 µM (inactive) | 15.1 µM (inactive) | 17.4 µM (inactive) | 17.8 µM (inactive) | > 100 µM (inactive) | 19.3 µM (inactive) | 18.8 | – | 17.5 µM (inactive) | 71.4 µM (inactive) | 18.8 µM (inactive) | 21.9 µM (inactive) | 17.6 µM (inactive) | 4.13 µM (inactive) | 22.2 µM (inactive) | 19.8 µM (inactive) | 16.9 µM (inactive) | 17.7 µM (inactive) |
